Test results from US4665087A, “1-(carbamyl, thiocarbamyl, and iminocarbamyl)-indoline derivatives” (Ciba-Geigy Corporation, priority 1985, dated 1987).
Structures can show the parent of a compound that is named as a salt.

Key:
[1] = molecular target: T1, angiotensin-converting enzyme (Oryctolagus cuniculus, UniProt P12822); test: in vitro inhibition of the angiotensin-converting enzyme; assay type: biochemical, rabbit
T1 construct: freshly prepared from lungs of adult male rabbits; from tissue; host or cells: lungs of adult male rabbits
T1 sequence (P12822 34-1310): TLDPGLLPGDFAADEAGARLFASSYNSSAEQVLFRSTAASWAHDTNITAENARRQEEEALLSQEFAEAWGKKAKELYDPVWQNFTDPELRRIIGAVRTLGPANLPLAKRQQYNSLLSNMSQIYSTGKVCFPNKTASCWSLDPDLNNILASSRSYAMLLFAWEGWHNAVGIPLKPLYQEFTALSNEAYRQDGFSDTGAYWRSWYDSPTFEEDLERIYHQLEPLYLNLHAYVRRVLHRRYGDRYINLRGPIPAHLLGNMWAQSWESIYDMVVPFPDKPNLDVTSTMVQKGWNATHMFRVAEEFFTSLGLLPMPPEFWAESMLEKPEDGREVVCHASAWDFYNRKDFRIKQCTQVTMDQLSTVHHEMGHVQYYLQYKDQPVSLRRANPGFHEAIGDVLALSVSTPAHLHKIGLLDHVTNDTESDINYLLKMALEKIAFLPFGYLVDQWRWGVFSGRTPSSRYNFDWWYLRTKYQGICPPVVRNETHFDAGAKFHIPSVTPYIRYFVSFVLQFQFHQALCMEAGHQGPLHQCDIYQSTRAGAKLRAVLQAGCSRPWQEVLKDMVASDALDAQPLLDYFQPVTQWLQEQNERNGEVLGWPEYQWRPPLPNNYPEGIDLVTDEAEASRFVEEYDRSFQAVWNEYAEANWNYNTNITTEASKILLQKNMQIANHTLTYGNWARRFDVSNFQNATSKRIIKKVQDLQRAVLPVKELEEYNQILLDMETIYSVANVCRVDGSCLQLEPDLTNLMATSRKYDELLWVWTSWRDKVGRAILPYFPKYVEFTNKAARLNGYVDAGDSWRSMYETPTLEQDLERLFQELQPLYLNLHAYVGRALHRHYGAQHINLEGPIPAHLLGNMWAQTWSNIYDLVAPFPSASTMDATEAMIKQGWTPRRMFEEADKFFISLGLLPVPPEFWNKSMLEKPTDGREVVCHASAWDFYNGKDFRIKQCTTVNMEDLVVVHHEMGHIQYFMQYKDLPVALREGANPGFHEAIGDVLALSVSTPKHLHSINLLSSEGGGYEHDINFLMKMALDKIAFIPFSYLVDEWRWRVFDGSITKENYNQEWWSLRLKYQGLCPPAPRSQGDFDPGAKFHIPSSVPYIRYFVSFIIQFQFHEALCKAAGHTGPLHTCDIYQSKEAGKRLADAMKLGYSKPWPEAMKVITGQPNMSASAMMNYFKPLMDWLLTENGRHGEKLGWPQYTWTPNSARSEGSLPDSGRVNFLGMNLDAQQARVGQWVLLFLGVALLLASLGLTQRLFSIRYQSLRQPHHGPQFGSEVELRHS
Experimental: Biophys. Acta 293, 451 (1973). According to this method said compounds are dissolved at about 1 mM concentrations in phosphate buffer, externally cooled with ice. To these solutions various μl amounts of 1 mM of histidyl-leucine in phosphate buffer are added, followed by 100 μl of 4mM hippuryl-histidyl-leucine in phosphate buffer and 50 μl of the angiotensin-converting enzyme, which is freshly prepared from lungs of adult male rabbits in Tris buffer, containing potassium and magnesium chloride, as well as sucrose. The solutions are incubated at 37° C. for 30 minutes and combined with 0.75 ml or 0.6 N aqueous sodium hydroxide to stop further reaction. Then 100 μl of o-phthalaldehyde are added at room temperature, and 10 minutes later 100 μl of 6N hydrochloric acid. These samples are read against water in a spectrophotometer set at 360 nm, and the optical densities thereof estimated. They are corrected for the standard curve via a conversion factor expressing nanomoles of histidyl-leucine formed during the 30 minute incubation period. The results are plotted against drug concentration to determine the IC50, i.e., the drug concentration which gives half the activity of the control sample containing no drug. Again, representative members of the compounds of this invention are very effective in this in vitro test system, down to IC50 values as low as 5 nM (5×10^-9 M).

[2] = test system: angiotensin I pressor response; test: inhibition of the angiotensin I pressor response in anesthetized normotensive rats; assay type: in vivo; conditions: rat, 1.0 mg/kg i.v.
Experimental: The enzyme renin normally causes specific hydrolysis of the circulating protein renin substrate. This hydrolysis generates angiotensin I, which is further hydrolyzed by the action of said converting enzyme to the potent vasoconstrictor angiotensin II. The inhibition of said enzyme prevents the generation of angiotensin II from I and, therefore, attenuates any pressure response following an angiotensin I challenge.
The corresponding in vivo test is performed with male, normotensive rats, which are anesthetized with 100-120 mg/kg i.p. of sodium ethyl-(1-methylpropyl)-malonylthiourea. A femoral artery and saphenous vein are cannulated for direct blood pressure measurement and i.v. administration of angiotensin I and compounds of this invention. After the basal blood pressure is stabilized, pressor response is to 3 challenge of 0.33 μg/kg of angiotensin I i.v., in 5 minutes intervals, are obtained. Such pressure responses are again obtained 5, 10, 15, 30 and 60 minutes after either i.v., or p.o. administration (stomach tube) of the compounds to be tested, and compared with the initial responses. […]

Question: NCCCCN(C[C@@H](CCc1ccccc1)C(=O)O)C(=O)N1c2ccccc2C[C@H]1C(=O)O [Example 9, 1S-[(R)-N-(2-carboxy-4-phenylbutyl)-N-(4-aminobutyl)carbamoyl]-2,3-dihydroindole-2-carboxylic acid disodium salt] was tested. Which IC50 [1] did it give?
Answer: Its IC50 is roughly 6 nM.

Question: And the “inhibition of the angiotensin I induced hypertension” value [2]?
Answer: Its value is “virtually completely inhibits”.
